Test results taken from US7378384B2, “WT1 substitution peptides” (International Institute of Cancer Immunology, Inc., priority 2002, dated 2008).
Entries after “also recorded” stand apart in the source; their conditions may differ. Non-standard residues stand in square brackets, D forms with d. No end group written: not given here. Cit = NC(=O)NCCC[C@H](N)C(=O)O; Orn = NCCC[C@H](N)C(=O)O; Abu = CC[C@H](N)C(=O)O

Experiments:
[1] = test system: HLA-A2402/K^b transgenic mice; experiment: In vivo immunogenicity (CTL-inducing activity): immunization of HLA-A2402/K^b transgenic mice, 51Cr release assay of in vitro restimulated splenocytes; set-up: species or system mouse
Experimental: In vivo immunogenicity of each antigen peptide was evaluated using the HLA-A2402/K^b transgenic mice. The preparation of the transgenic mice and the determination of in vivo immunogenicity were conducted according to WO 02/47474, and Int J. Cancer. 100, 565-570 (2002) that describe them in detail.
(§1) The non-substituted type peptide and the substituted type peptides as described above were synthesized using Fmoc method. The peptides synthesized were each adjusted to 40 mg/ml in DMSO, and each diluted with a sterilized water to 2.4 mg/ml. They were then mixed with a 1.27 parts of Freund's incomplete adjuvant (ISA51) using a glass syringe to prepare a water-in-oil emulsion. The resultant emulsion (200 μl) was injected into the HLA-A2402/K^b transgenic mouse subcutaneously in the base of the tail for immunization.
Seven days after the immunization, the spleen was removed and grounded on the frosted part of glass slide, and splenocytes were recovered and prepared. A portion of the splenocytes undergone hemolysis treatment with an ACK buffer (0.15 M NH4Cl, 10 mM KHCO3, 0.1 mM EDTA, pH 7.2-7.4) was pulsed with the above-mentioned peptide compositions at 100 μg/ml for 1 hour, and seeded into a 24-well plate at 7×10^5/well. Simultaneously, splenocytes not pulsed with any peptide (7×10^6/well) were added together, and stimulated in vitro and incubated at 37° C. for 5 to 6 days. The in vitro stimulation was carried out in RPMI1640 medium supplemented with 10% FCS, 10 mM HEPES, 20 mM L-glutamine, 1 mM sodium pyruvate, 1 mM MEM nonessential amino acids, 1% MEM vitamin and 55 μM 2-mercaptoethanol.
The test for cytotoxic activity was conducted according to the conventional manner. EL4-A2402/K^b cells obtained by transforming EL-4 cells (DAINIPPON PHARMACEUTICAL CO., LTD., Catalogue No. 06-039) with an expression vector encoding HLA-A2402/K^b, and the EL4-A2402/K^b cells pulsed with peptide A, B, C, D, E, or F were used as target cells (T). The EL4-A2402/K^b cells were prepared in a similar manner to the preparation of Jurkat-A2402/K^b cells described in WO 02/47474.
These cells were labeled with ^51Cr (3.7 MBq/10^6 cells) and pulsed with the peptide at 100 μg/ ml for an hour (The labeling was carried out over 2 hours, and 1 hour after the initiation of labeling, the peptide was added). Splenocytes in vitro stimulated and incubated were used as effector cells (E). They were combined with the target cells at various ratios, and ^51Cr release assay (J. Immunol., 1997; 159: 4753) was conducted to determine the cytotoxic activity of the effector cells. […]
as §1, with “The” for “The non-substituted type peptide and the”, “peptides” for “peptides as described above”, “physiological saline” for “sterilized water”
The test for cytotoxic activity was conducted according to the conventional manner. EL4-A2402/K^b cells obtained by transforming EL-4 cells with an expression vector encoding HLA-A2402/K^b, and the EL4-A2402/K^b cells pulsed with peptide K, L, or M were used as target cells (T).
These cells were labeled with ^51Cr (3.7 MBq/10^6 cells) and pulsed with the peptide at 100 μg/ml for an hour (The labeling was carried out over 2 hours, and 1 hour after the initiation of labeling, the peptide was added). Splenocytes in vitro stimulated and incubated were used as effector cells (E). They were combined with the target cells at various ratios, and ^51Cr release assay (J. Immunol., 1997; 159: 4753) was conducted to determine the cytotoxic activity of the effector cells.

CTLs = conditions: Clin. Cancer. Res. 8: 2626, 2002, and WO 00/06602; cited from earlier work
HLA-A24 antigen = conditions: compared with the natural type peptide WT1235-243; cited from earlier work
[2] = Example 1, s.c. immunization with peptide in ISA51 water-in-oil emulsion, splenocytes 7 days after, target EL4-A2402/K^b cells pulsed with the peptide at 100 μg/ml vs not pulsed
[3] = Example 4, peptide in saline/ISA51 emulsion s.c., target EL4-A2402/K^b cells pulsed with the peptide at 100 μg/ml vs not pulsed
[4] = Example 3, peptide with KLH in ISA51 emulsion s.c., target EL4-A2402/K^b cells pulsed with the peptide at 20 μg/ml vs not pulsed

## SYTWNQMNL [peptide B]
[1]; [2]
  immunogenicity (activity to induce CTLs); cytotoxic activity (% Specific Lysis) vs E/T ratio: specific CTLs were induced

## NYTWNQMNL [peptide M]
[1]; [3]
  immunogenicity (activity to induce CTLs); cytotoxic activity (% Specific Lysis) vs E/T ratio: have an immunogenicity (an activity to induce CTLs); also recorded: specific CTLs were induced

## AYTWNQMNL [peptide C]
[1]; [2]
  immunogenicity (activity to induce CTLs); cytotoxic activity (% Specific Lysis) vs E/T ratio: specific CTLs were induced

## AMTWNQMNL [peptide H]
[1]; Example 3, peptide with KLH in ISA51 emulsion s.c., target Jurkat-A2402/K^b cells pulsed with the peptide at 20 μg/ml vs not pulsed
  immunogenicity (activity to induce CTLs); cytotoxic activity (% Specific Lysis) vs E/T ratio: have an immunogenicity (an activity to induce CTLs); also recorded: specific CTLs were induced

## Orn Tyr Thr Trp Asn Gln Met Asn Leu ([Orn]YTWNQMNL) [peptide I]
[1]; [4]
  immunogenicity (activity to induce CTLs); cytotoxic activity (% Specific Lysis) vs E/T ratio: have an immunogenicity (an activity to induce CTLs); also recorded: specific CTLs were induced

## RYTWNQMNL [peptide E]
[1]; [2]
  immunogenicity (activity to induce CTLs); cytotoxic activity (% Specific Lysis) vs E/T ratio: specific CTLs were induced

## CMTWNQMNL [WT1235-243]
CTLs
  activity to induce CTLs in HLA-A24-restricted manner: having an activity to induce CTLs in HLA-A24-restricted manner

## KYTWNQMNL [peptide F]
[1]; [2]
  immunogenicity (activity to induce CTLs); cytotoxic activity (% Specific Lysis) vs E/T ratio: specific CTLs were induced

## Abu-Tyr-Thr-Trp-Asn-Gln-Met-Asn-Leu ([Abu]YTWNQMNL) [peptide D]
[1]; [2]
  immunogenicity (activity to induce CTLs); cytotoxic activity (% Specific Lysis) vs E/T ratio: specific CTLs were induced

## LYTWNQMNL [peptide K]
[1]; [3]
  immunogenicity (activity to induce CTLs); cytotoxic activity (% Specific Lysis) vs E/T ratio: have an immunogenicity (an activity to induce CTLs); also recorded: specific CTLs were induced

## FYTWNQMNL [peptide L]
[1]; [3]
  immunogenicity (activity to induce CTLs); cytotoxic activity (% Specific Lysis) vs E/T ratio: have an immunogenicity (an activity to induce CTLs); also recorded: specific CTLs were induced

## SMTWNQMNL [peptide G]
[1]; [4]
  immunogenicity (activity to induce CTLs); cytotoxic activity (% Specific Lysis) vs E/T ratio: have an immunogenicity (an activity to induce CTLs); also recorded: specific CTLs were induced

## CYTWNQMNL [peptide A, reference compound]
[1]; [2]
  immunogenicity (activity to induce CTLs); cytotoxic activity (% Specific Lysis) vs E/T ratio: specific CTLs were induced
HLA-A24 antigen
  binding activity to the HLA-A24 antigen: higher binding activity to the HLA-A24 antigen than the natural type peptide

## Cit Tyr Thr Trp Asn Gln Met Asn Leu ([Cit]YTWNQMNL) [peptide J]
[1]; [4]
  immunogenicity (activity to induce CTLs); cytotoxic activity (% Specific Lysis) vs E/T ratio: have an immunogenicity (an activity to induce CTLs); also recorded: specific CTLs were induced
